The values that follow are results of earlier work, collected in US20130102943A1, “RELOADABLE FINISHES FOR TEXTILES AND FORMULATIONS FOR LOADING SUCH FINISHES” (SCHOELLER TEXTIL AG, priority 2009, published 2013).

Each structure is given as a SMILES string.

This data set relates to gram-negative and gram-positive bacteria, as well as yeasts and molds.

Take `CCCCCCCCCCCC(=O)N[C@@H](CCCNC(=N)N)C(=O)OCC.Cl` [Lauroyl arginate, Ethyl-N-alpha-lauroyl-L-arginate HCl]: the “antimicrobial effectiveness” value is “effective”.
